Data as given in US7067488B2, “Modified GLP-1 peptides with increased biological potency” (TheraTechnologies Inc., priority 2002, dated 2006).

Experiments:
RINm5F cells = assay: cAMP production in RINm5F cells; assay type: cell-based; settings: Mean ± SD; for IC50: 40 minutes incubation with peptide, 0.5 mM IBMX
Experimental: RINm5F cells (ATCC # CRL-2058) were grown to confluence and used 4 days following confluency. Aqueous stock solutions (1 mM) of GLP-1, 5, 8, 16, and 17, also containing 0.1% BSA, were made prior to the assay. Cells were pre-incubated with 100 μl RPMI containing 0.5 mM IBMX for 10 minutes at 37° C. Diluted (10^−5 to 10^−11 M) peptides (100 μl) were added to the wells and incubated for 40 minutes. At the end of the incubation period, the supernatant was collected and assayed for cAMP using a radioimmunoassay kit (Diagnostic Product Corporation). Maximal responses (pmol/mg protein) and IC50 (nM) values were evaluated from the dose-response curves and data presented in Table 3.

Sprague-Dawley rats = assay: Intraperitoneal glucose tolerance test (IPGTT), plasma insulin levels in Sprague-Dawley rats; assay type: in vivo; settings: 10 μg/rat iv
Experimental: Sprague-Dawley rats (300–350 g) were fasted overnight, and injected with 1 g/kg glucose (2 ml) (over 15–20 seconds), and blood glucose levels were determined at different times during a period of 3 hours using a portable glucometer. The drugs (10 μg/rat) were dissolved in saline and injected into the femoral vein 5 minutes before the injection of glucose. Thus 0 time represents blood glucose and insulin levels after drug administration but before glucose injection. Plasma insulin levels were determined using a radioimmunoassay kit (Linco). […] The insulinogenic index was calculated as delta insulin (pM)/delta glucose (mM).

[1] = cited from earlier work
CD-1 normal female mice = settings: 1 μg dose ip, CD-1 mice
Experimental: An OGTT was done as described above. Plasma insulin levels were determined using a commercial RIA kit (Linco Research).

db/db mice = assay: OGTT in diabetic mice (db/db); assay type: in vivo; settings: 5 μG/mouse ip
Experimental: An OGTT was conducted as described in Example 3. Peptides were injected intra-parentally (ip) at 5 μG/mouse doses.

Substance | IC50 (RINm5F cells) [nM] | Maximal Response (RINm5F cells) [pmol/mg protein] | accelerating glucose disposal compared to GLP-1 (db/db mice) | other results
[H7] 3-aminophenyl acetic acid GLP-1 (7–37) COOH [Compound 5] | 8.7 ± 9.8 | 20.0 ± 6.9 | – | –
GLP-1 (7–37) OH [reference compound] | 6.4 ± 3.8 | 17.6 ± 5.1 | – | order of efficacy (Sprague-Dawley rats): 15=5>7=GLP-1>8=vehicle; half-life of circulating GLP-1 ([1]; Kreymann et al., 1987): about 4 minutes; metabolic clearance rate ([1]; active GLP-1 (Holst, 1994)): 12 to 13 min; plasma half-life ([1]; active GLP-1 (Holst, 1994)): < 5 min
[H7] 3-methoxyphenyl acetic acid GLP-1 (7–37) COOH [Compound 7] | – | – | performed better than GLP-1 | effect on glucose disposal (CD-1 normal female mice): no effect on glucose disposal
[H7] Salicylic acid GLP-1 (7–37) COOH [Compound 8] | 13.9 ± 15.6 | 25.1 ± 11.9 | performed better than GLP-1 | order of efficacy (Sprague-Dawley rats): 15=5>7=GLP-1>8=vehicle
[H7] 3-aminophenyl acetic acid GLP-1 (7–36) CONH2 [Compound 16] | 10.2 ± 7.7 | 13.8 ± 3.6 | – | –
[H7] (1S, 2S) 2-ethylcyclopropyl acetic acid GLP-1 (7–37) COOH [Compound 15] | – | – | performed better than GLP-1 | –
[H7] Salicylic acid GLP-1 (7–37) CONH2 [Compound 17] | 13.2 ± 5.2 | 21.9 ± 2.1 | – | –
